The target in experiment [1] is T1, JAK1 (Homo sapiens, UniProt P23458).
T1 construct: GST; purchased Life Technologies
Briefly: Assay 1: LanthaScreen biochemical JAK kinase assay, JAK1. The note with it: converted from pIC50 by Cheng-Prusoff; ATP at Km 25 μM; read-out: JAK 1 pKi (converted). As to the method:
A panel of four LanthaScreen JAK biochemical assays (JAK1, 2, 3 and Tyk2) were carried in a common kinase reaction buffer (50 mM HEPES, pH 7.5, 0.01% Brij-35, 10 mM MgCl2, and 1 mM EGTA). Recombinant GST-tagged JAK enzymes and a GFP-tagged STAT1 peptide substrate were obtained from Life Technologies.
The serially diluted compound was pre-incubated with each of the four JAK enzymes and the substrate in white 384-well microplates (Corning) at ambient temperature for lh. ATP was subsequently added to initiate the kinase reactions in 10 μL total volume, with 1% DMSO. […] The plates were allowed to incubate at ambient temperature for lh before being read on the EnVision reader (Perkin Elmer). Emission ratio signals (520 nm/495 nm) were recorded and utilized to calculate the percent inhibition values based on DMSO and background controls.
For dose-response analysis, percent inhibition data were plotted vs. compound concentrations, and IC50 values were determined from a 4-parameter robust fit model with the Prism software (GraphPad Software). Results were expressed as pIC50 (negative logarithm of IC50) and subsequently converted to pK1 (negative logarithm of dissociation constant, Ki) using the Cheng-Prusoff equation.

Experiment [2] deals with IL-6 induced pSTAT3 in retina/choroid. Kind of experiment: Assay 13: Pharmacodynamic assay: inhibition of IL6-induced pSTAT3 in rats. It counts as in vivo, Lewis rats. The following applies: rat, IVT suspension of crystalline compound 1 of Example 2, 15 μg dose, 3 day pre-treatment. The procedure: The ability of a single intravitreal administration of test compound to inhibit IL-6 induced pSTAT3 was measured in rat retina/choroid homogenates.
Suspension formulations were prepared by combining crystalline compound 1 of Example 2 with 0.5% hydroxypropyl methylcellulose (HPMC E5 LV), 0.02% Tween 80, and 0.9% sodium chloride in purified water to attain target concentrations of 3 mg/mL and 10 mg/mL.
Female Lewis rats were intravitreally (IVT) dosed (5 μL per eye) with the suspension formulations or with the drug vehicle. Three days later, IL-6 (Peprotech; 0.1 mg/mL; 5 μL per eye) or vehicle was intravitreally administered to induce pSTAT3.
Ocular tissues were dissected one hour after the second IVT injection with IL-6. The retina/choroid tissues were homogenized and pSTAT3 levels were measured using an ELISA (Cell Signaling Technology). The percent inhibition of IL-6-induced pSTAT3 was calculated in comparison to the vehicle/vehicle and vehicle/IL-6 groups. Inhibition of greater than 100% reflects a reduction of pSTAT3 levels to below those observed in the vehicle/vehicle group.

Experiment [3] has as its system IFNγ induced CXCL10 secretion in EpiAirway tissue cultures. Kind of experiment: Assay 15: IFNγ induced CXCL10 in human 3D airway cultures. It counts as cell-based. The note with it: 192 h, Day 8, average from 3 or 4 donors, read-out: % inhibition of IFNγ induced CXCL10 secretion (±STDV). As to the method:
EpiAirway tissue cultures were obtained from Mattek (AIR-100). Cultures were derived from asthmatic donors. In a cell culture insert, human derived tracheal/bronchial epithelial cells were grown and differentiated on a porous membrane support, allowing an air-liquid interface with warmed culture medium below the cells and a gaseous test atmosphere above. Tissues were cultured in maintenance media (Mattek, AIR-100-MM) in a 37° C., 5% CO2 humidified incubator. Four donors were tested. On Day 0, tissue cultures were treated with test compounds at 10 μM, 1 μM and/or 0.1 μM. Compounds were diluted in dimethyl sulfoxide (DMSO, Sigma) to a final concentration of 0.1%. DMSO at 0.1% was used as a vehicle control. Test compounds were incubated with cultures for 1 hour at 37° C., 5% CO2, followed by the addition of pre-warmed media containing IFNγ (R&D Systems) or IL-27 (R&D Systems) at a final concentration at 100 ng/ml. Tissue cultures were maintained for 8 days. Media was replaced every 2 days with fresh media containing compounds and IFNγ or IL-27. On Day 8, tissue cultures and supernatants were collected for analysis. […] Data is expressed as % Inhibition +/−standard deviation (±STDV). Percent inhibition was determined by compound inhibitory potency against IFNγ or IL-27 induced CXCL10 or CXCL9 secretion compared to vehicle treated cells. […]

T1 sequence (P23458 whole entry): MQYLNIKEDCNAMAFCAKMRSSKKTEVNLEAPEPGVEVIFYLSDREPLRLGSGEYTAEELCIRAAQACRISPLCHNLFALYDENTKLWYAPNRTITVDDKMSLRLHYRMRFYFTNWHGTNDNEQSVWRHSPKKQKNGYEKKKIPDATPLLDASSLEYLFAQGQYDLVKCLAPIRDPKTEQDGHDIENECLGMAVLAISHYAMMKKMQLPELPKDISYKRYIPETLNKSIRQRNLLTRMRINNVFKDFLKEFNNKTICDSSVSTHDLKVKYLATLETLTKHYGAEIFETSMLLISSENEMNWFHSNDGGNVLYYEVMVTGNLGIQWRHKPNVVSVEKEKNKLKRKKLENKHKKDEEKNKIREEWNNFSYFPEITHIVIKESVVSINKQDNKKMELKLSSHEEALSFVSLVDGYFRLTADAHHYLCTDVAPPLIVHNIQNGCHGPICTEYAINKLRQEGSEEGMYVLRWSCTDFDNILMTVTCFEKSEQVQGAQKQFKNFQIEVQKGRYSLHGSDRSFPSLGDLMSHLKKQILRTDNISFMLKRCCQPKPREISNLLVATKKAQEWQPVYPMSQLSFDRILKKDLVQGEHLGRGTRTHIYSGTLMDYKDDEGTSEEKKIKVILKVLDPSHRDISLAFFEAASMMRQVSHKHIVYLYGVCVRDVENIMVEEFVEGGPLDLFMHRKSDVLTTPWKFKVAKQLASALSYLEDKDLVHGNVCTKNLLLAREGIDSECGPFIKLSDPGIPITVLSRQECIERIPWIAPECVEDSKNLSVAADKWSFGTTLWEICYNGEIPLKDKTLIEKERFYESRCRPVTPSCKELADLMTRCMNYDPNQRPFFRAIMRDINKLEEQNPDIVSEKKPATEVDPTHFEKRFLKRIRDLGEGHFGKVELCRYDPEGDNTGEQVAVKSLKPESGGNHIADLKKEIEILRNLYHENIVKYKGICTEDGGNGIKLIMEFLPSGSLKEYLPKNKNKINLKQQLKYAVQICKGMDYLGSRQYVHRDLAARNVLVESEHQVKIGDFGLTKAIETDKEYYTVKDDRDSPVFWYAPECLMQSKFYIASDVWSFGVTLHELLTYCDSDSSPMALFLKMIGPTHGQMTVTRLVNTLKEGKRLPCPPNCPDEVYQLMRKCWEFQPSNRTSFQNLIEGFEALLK

For `CCc1cc(O)c(F)cc1-c1ccc2c(-c3nc4c([nH]3)CCN(C3CCN(C)CC3)C4)n[nH]c2c1` [Compound 1, 5-ethyl-2-fluoro-4-(3-(5-(1-methylpiperidin-4-yl)-4,5,6,7-tetrahydro-1H-imidazo[4,5-c]pyridin-2-yl)-1H-indazol-6-yl)phenol], the Ki in experiment [1] was 0.0631 nM. Further, the “inhibition of IL-6-induced pSTAT3 in retina/choroid tissues” value in experiment [2] amounted to 33%. The inhibition at 0.1 µM in experiment [3] (at 0.1 μM) worked out at 17%. Besides, in experiment [3] (at 10 μM), the inhibition at 10 µM was 99%.

The record behind these values is US10251874B2, “Crystalline forms of a JAK inhibitor compound” (THERAVANCE BIOPHARMA R&D IP, LLC, priority 2017, dated 2019).
